Data from US6737383B1, “Herbicidal oxadiazolidines” (priority 1999, dated 2004).

Key:
bedstraw = assay: Test B pre/postemergence bedstraw; format: in vivo, Galium aparine
How it was run: (§1)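 Test chemicals in a non-phytotoxic solvent mixture with surfactant were sprayed preemergence onto planted seeds and postemergence onto plants 2 to 18 cm tall (1- to 4-leaf stage). After twelve to sixteen days in a greenhouse, injury was visually rated against untreated controls from 0 (no effect) to 10 (complete control).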

blackgrass = assay: Test B pre/postemergence blackgrass; format: in vivo, Alopecurus myosuroides
How it was run: as §1

surinam grass = assay: Test B pre/postemergence surinam grass; format: in vivo, Brachiaria decumbens
How it was run: as §1

cocklebur = assay: Test B pre/postemergence cocklebur; format: in vivo, Xanthium strumarium
How it was run: as §1

corn = assay: Test B pre/postemergence corn; format: in vivo, Zea mays
How it was run: as §1

crabgrass = assay: Test B pre/postemergence crabgrass; format: in vivo, Digitaria sanguinalis
How it was run: as §1

giant foxtail = assay: Test B pre/postemergence giant foxtail; format: in vivo, Setaria faberii
How it was run: as §1

morningglory = assay: Test B pre/postemergence morningglory; format: in vivo, Ipomoea hederacea
How it was run: as §1

pigweed = assay: Test B pre/postemergence pigweed; format: in vivo, Amaranthus retroflexus
How it was run: as §1

rape = assay: Test B pre/postemergence rape; format: in vivo, Brassica napus
How it was run: as §1

soybean = assay: Test B pre/postemergence soybean; format: in vivo, Glycine max
How it was run: as §1

sugar beet = assay: Test B pre/postemergence sugar beet; format: in vivo, Beta vulgaris
How it was run: as §1

velvetleaf = assay: Test B pre/postemergence velvetleaf; format: in vivo, Abutilon theophrasti
How it was run: as §1

wheat = assay: Test B pre/postemergence wheat; format: in vivo, Triticum aestivum
How it was run: as §1

wild oat = assay: Test B pre/postemergence wild oat; format: in vivo, Avena fatua
How it was run: as §1

purple nutsedge = assay: Test B pre/postemergence purple nutsedge; format: in vivo, Cyperus rotundus
How it was run: as §1

[1] = Postemergence, Rate 250 g/ha, scale of 0 to 10, 0 is no effect, 10 is complete control
[2] = Preemergence, Rate 62 g/ha, scale of 0 to 10 where 0 is no effect and 10 is complete control
[3] = Preemergence, Rate 125 g/ha, scale of 0 to 10 where 0 is no effect and 10 is complete control
[4] = Preemergence, Rate 250 g/ha, scale 0 to 10 (0 no effect, 10 complete control)
[5] = Preemergence, Rate 500 g/ha, scale of 0 to 10 where 0 is no effect and 10 is complete control
[6] = Rate 500 g/ha, Postemergence, scale 0 to 10, 0 is no effect, 10 is complete control
[7] = Postemergence, Rate 62 g/ha, scale 0 to 10, 0 is no effect, 10 is complete control
[8] = Postemergence, Rate 125 g/ha, scale of 0 to 10 where 0 is no effect and 10 is complete control

SMILES: CC(C)N(C(=O)n1oc(=O)n(C(CCl)CCl)c1=O)c1ccc(F)cc1 [Compound 672]
- Bedstraw plant response rating (bedstraw; [1]): 4
- Bedstraw plant response rating (bedstraw; [2]): 0
- Plant response rating, Bedstraw (bedstraw; [3]): 0
- Plant response rating, Bedstraw (bedstraw; [4]): 0
- Plant response rating, Bedstraw (bedstraw; [5]): 0
- Bedstraw plant response rating (bedstraw; [6]): 6
- Plant response rating, Blackgrass (blackgrass; [7]): 0
- Blackgrass plant response rating (blackgrass; [8]): 2
- Blackgrass plant response rating (blackgrass; [1]): 6
- Blackgrass plant response rating (blackgrass; [2]): 1
- Plant response rating, Blackgrass (blackgrass; [3]): 3
- Plant response rating, Blackgrass (blackgrass; [4]): 8
- Plant response rating, Blackgrass (blackgrass; [5]): 8
- Blackgrass plant response rating (blackgrass; [6]): 6
- Plant response rating, B. signalgrass (surinam grass; [7]): 0
- Plant response rating, B. signalgrass (surinam grass; [8]): 3
- B. signalgrass plant response rating (surinam grass; [1]): 3
- B. signalgrass plant response rating (surinam grass; [2]): 2
- Plant response rating, B. signalgrass (surinam grass; [3]): 4
- Plant response rating, B. signalgrass (surinam grass; [4]): 6
- Plant response rating, B. signalgrass (surinam grass; [5]): 8
- B. signalgrass plant response rating (surinam grass; [6]): 4
- Plant response rating, Cocklebur (cocklebur; [7]): 0
- Cocklebur plant response rating (cocklebur; [8]): 1
- Cocklebur plant response rating (cocklebur; [1]): 2
- Cocklebur plant response rating (cocklebur; [2]): 0
- Plant response rating, Cocklebur (cocklebur; [3]): 0
- Plant response rating, Cocklebur (cocklebur; [4]): 0
- Cocklebur plant response rating (cocklebur; [6]): 7
- Plant response rating, Corn (corn; [7]): 0
- Corn plant response rating (corn; [8]): 0
- Corn plant response rating (corn; [1]): 0
- Corn plant response rating (corn; [2]): 0
- Plant response rating, Corn (corn; [3]): 0
- Plant response rating, Corn (corn; [4]): 0
- Plant response rating, Corn (corn; [5]): 0
- Corn plant response rating (corn; [6]): 0
- Plant response rating, Crabgrass (crabgrass; [7]): 5
- Crabgrass plant response rating (crabgrass; [8]): 6
- Crabgrass plant response rating (crabgrass; [1]): 7
- Crabgrass plant response rating (crabgrass; [2]): 8
- Plant response rating, Crabgrass (crabgrass; [3]): 10
- Plant response rating, Crabgrass (crabgrass; [4]): 10
- Plant response rating, Crabgrass (crabgrass; [5]): 10
- Crabgrass plant response rating (crabgrass; [6]): 9
- Plant response rating, Giant foxtail (giant foxtail; [7]): 3
- Giant foxtail plant response rating (giant foxtail; [8]): 5
- Giant foxtail plant response rating (giant foxtail; [1]): 8
- Giant foxtail plant response rating (giant foxtail; [2]): 9
- Plant response rating, Giant foxtail (giant foxtail; [3]): 10
- Plant response rating, Giant foxtail (giant foxtail; [4]): 10
- Plant response rating, Giant foxtail (giant foxtail; [5]): 10
- Giant foxtail plant response rating (giant foxtail; [6]): 9
- Plant response rating, Morningglory (morningglory; [7]): 4
- Morningglory plant response rating (morningglory; [8]): 8
- Morningglory plant response rating (morningglory; [1]): 8
- Morningglory plant response rating (morningglory; [2]): 0
- Plant response rating, Morningglory (morningglory; [3]): 0
- Plant response rating, Morningglory (morningglory; [4]): 0
- Plant response rating, Morningglory (morningglory; [5]): 2
- Plant response rating, Redroot pigweed (pigweed; [7]): 7
- Redroot pigweed plant response rating (pigweed; [2]): 0
- Plant response rating, Redroot pigweed (pigweed; [3]): 3
- Plant response rating, Redroot pigweed (pigweed; [4]): 7
- Plant response rating, Redroot pigweed (pigweed; [5]): 8
- Redroot pigweed plant response rating (pigweed; [6]): 8
- Plant response rating, Rape (rape; [7]): 0
- Rape plant response rating (rape; [8]): 3
- Rape plant response rating (rape; [2]): 0
- Plant response rating, Rape (rape; [3]): 2
- Plant response rating, Rape (rape; [4]): 7
- Plant response rating, Rape (rape; [5]): 8
- Rape plant response rating (rape; [6]): 3
- Plant response rating, Soybean (soybean; [7]): 2
- Soybean plant response rating (soybean; [8]): 2
- Soybean plant response rating (soybean; [2]): 0
- Plant response rating, Soybean (soybean; [3]): 0
- Plant response rating, Soybean (soybean; [4]): 0
- Plant response rating, Soybean (soybean; [5]): 0
- Soybean plant response rating (soybean; [6]): 5
- Plant response rating, Sugarbeets (sugar beet; [7]): 0
- Sugarbeets plant response rating (sugar beet; [8]): 0
- Sugarbeets plant response rating (sugar beet; [2]): 3
- Plant response rating, Sugarbeets (sugar beet; [3]): 4
- Plant response rating, Sugarbeets (sugar beet; [4]): 7
- Plant response rating, Sugarbeets (sugar beet; [5]): 8
- Sugarbeets plant response rating (sugar beet; [6]): 3
- Plant response rating, Velvetleaf (velvetleaf; [7]): 6
- Velvetleaf plant response rating (velvetleaf; [8]): 6
- Velvetleaf plant response rating (velvetleaf; [2]): 0
- Plant response rating, Velvetleaf (velvetleaf; [3]): 3
- Plant response rating, Velvetleaf (velvetleaf; [4]): 3
- Plant response rating, Velvetleaf (velvetleaf; [5]): 4
- Velvetleaf plant response rating (velvetleaf; [6]): 7
- Plant response rating, Wheat (wheat; [7]): 0
- Wheat plant response rating (wheat; [8]): 0
- Wheat plant response rating (wheat; [2]): 0
- Plant response rating, Wheat (wheat; [3]): 0
- Plant response rating, Wheat (wheat; [4]): 0
- Plant response rating, Wheat (wheat; [5]): 0
- Wheat plant response rating (wheat; [6]): 0
- Plant response rating, Wild oats (wild oat; [7]): 0
- Wild oats plant response rating (wild oat; [8]): 0
- Wild oats plant response rating (wild oat; [2]): 0
- Plant response rating, Wild oats (wild oat; [3]): 4
- Plant response rating, Wild oats (wild oat; [4]): 5
- Plant response rating, Wild oats (wild oat; [5]): 7
- Wild oats plant response rating (wild oat; [6]): 0
- Plant response rating, Nutsedge (purple nutsedge; [7]): 0
- Nutsedge plant response rating (purple nutsedge; [8]): 0
- Nutsedge plant response rating (purple nutsedge; [2]): 0
- Plant response rating, Nutsedge (purple nutsedge; [3]): 0
- Plant response rating, Nutsedge (purple nutsedge; [4]): 0
- Plant response rating, Nutsedge (purple nutsedge; [5]): 0
- Nutsedge plant response rating (purple nutsedge; [6]): 5
